Here are results for eight molecules from patent publication US7910593B2, “Water-soluble prodrugs” (Chugai Seiyaku Kabushiki Kaisha, priority 2004, dated 2011).

Counter-ions that a name gives are not always drawn. Like-named read-outs stand apart in the source and are kept apart here. Where only a bound is given, the exact number is not on record here.

A short description of data set [1]: Test Example 3: solubility in distilled water. It counts as physicochemical. The text has this: The solubility of the water-soluble prodrugs obtained in the Examples (compounds 1A to 8A) in distilled water was compared to the solubility of (9S)-9-ethyl-9-hydroxy-1-pentyl-1H,12H-pyrano[3″,4″:6′,7′]indolizino[1′,2′:6,5]pyrido[4,3,2-de]quinazoline-10,13 (9H,15H)-dione (representative compound in Patent document 2: reference compound 1).

Data set [2] is described as follows: Comparative Test Example 1: conversion of reference compound 2 in mouse sera. The conditions noted are these: FIG. 7. It counts as in vitro ADME. The protocol: (§1) Compound 2A was incubated at 37° C. at a concentration of 50 μM in sera of humans, mice, monkeys, and dogs. Incubation was terminated at a given time (0, 30, 60, 120, and 360 minutes), and the samples were analyzed by HPLC after deproteinization treatments.
(§2) Conditions for the HPLC analysis are as follows: • HPLC conditions • Column: Develosil C30-UG-3, 3 μm, 50×4.6 mm I.D • Column Temperature: constant temperature at approximately 25° C. • Mobile phase: A: 10 mM phosphate buffer (pH4.7) • B: acetonitrile • /B (min): 90/10(0)→90/10(0.4)→40/60(6)→2/98(8)→90/10(9)→90/10(15)
(§3) Flow rate: 1.0 mL/min • Detection: photodiode array detector, detection wavelength 350 nm • Amount injected: 30 μL
(§4) Similar to Examination 1, the percent changes of (9S)-9-ethyl-9-(tryptophyl-γ-glutamyloxy)-1-pentyl-1H,12H-pyrano[3″,4″:6′,7′]indolizino[1′,2′:6,5]pyrido[4,3,2-de]quinazoline-10,13(9H,15H)-dione [representative compound (Q) in Patent document 1: reference compound 2] being converted in the lactone form and the carboxylate form over time in human and mouse sera were determined.

Data set [3] is described as follows: Comparative Test Example 1: conversion of reference compound 2 in human sera. It counts as in vitro ADME. The conditions noted are these: FIG. 6. The method, then: as §1, §2, §3, §4
The subject of data set [4] is human colon cancer cell line HCT116. The data set is described as follows: Test Example 4: antitumor effect in HCT116 tumor-bearing nude mice. The data set is classed as in vivo, BALB/c nude mice. Conditions: once per week for three weeks. The protocol: Antitumor effects were determined for representative examples of the group of compounds of the present invention. Tumor-bearing mice were generated by subcutaneous transplantation of human colon cancer cell line HCT116 obtained from American Type Culture Collection (Virginia, USA) into the right flank of BALB/c nude mice purchased from Charles River Japan, and used for determination of antitumor effects.
After a one-week quarantine period, the purchased nude mice were subjected to subcutaneous transplantation of 5×10^6 HCT116 cells at their right flank. Mice with a tumor size reaching 200 mm^3 or so were subjected to the experiment.
The compounds were dissolved in 1 mM citric bufferes saline, pH 4, and administered intravenously. The administration was carried out once per week for three weeks, for a total of three administrations. The antitumor effect was determined as tumor growth inhibition (TGI) using the following equation. Tumor growth inhibition (TGI) (%)={(1−mean tumor volume change in the drug-treated group/mean tumor volume change in the control group)×100} The results are shown in Table 6.

Where [5] appears, read: distilled water, read-out: Solubility in distilled water.

Consider `CCCCCN1C=Nc2cccc3nc4c(c1c23)Cn1c-4cc2c(c1=O)COC(=O)[C@]2(O)CC` [Reference compound 1, (9S)-9-ethyl-9-hydroxy-1-pentyl-1H,12H-pyrano[3″,4″:6′,7′]indolizino[1′,2′:6,5]pyrido[4,3,2-de]quinazoline-10,13 (9H,15H)-dione, reference compound], for which, in data set [1] (water), the solubility is less than 10 µg/mL.

For `CCCCCN1C=Nc2cccc3nc4c(c1c23)Cn1c-4cc2c(c1=O)COC(=O)[C@@]2(CC)OC(=O)CN(C)CCN.Cl` [Compound 3A, (9S)-9-{[(2-Amino-ethyl)-methyl-amino]-acetoxy}-9-ethyl-1-pentyl-1H,12H-pyrano[3″,4″:6′,7′]indolizino[1′,2′:6,5]pyrido[4,3,2-de]quinazoline-10,13(9H,15H)-dione hydrochloride], in data set [1] (setting [5]), the solubility is more than 10000 µg/mL.

For `CCCCCN1C=Nc2cccc3nc4c(c1c23)Cn1c-4cc2c(c1=O)COC(=O)[C@@]2(CC)OC(=O)OCCS(=O)(=O)C[C@H](N)C(=O)OC` [Compound 6A, (9S)-9-{2-[(R-2-Amino-2-methoxycarbonyl)ethanesulfonyl]ethoxycarbonyloxy}-9-ethyl-1-pentyl-1H,12H-pyrano[3″,4″:6′,7′]indolizino[1′,2′:6,5]pyrido[4,3,2-de]quinazoline-10,13(9H,15H)-dione trifluoroacetic acid salt], the solubility in data set [1] (setting [5]) was more than 10000 µg/mL.

For `CCCCCN1C=Nc2cccc3nc4c(c1c23)Cn1c-4cc2c(c1=O)COC(=O)[C@@]2(CC)OC(=O)CC[C@H](NC(=O)[C@@H](N)Cc1c[nH]c2ccccc12)C(=O)O` [reference compound 2, (9S)-9-ethyl-9-(tryptophyl-γ-glutamyloxy)-1-pentyl-1H,12H-pyrano[3″,4″:6′,7′]indolizino[1′,2′:6,5]pyrido[4,3,2-de]quinazoline-10,13(9H,15H)-dione], the “conversion rate and efficiency into the lactone form and the carboxylate form” value in data set [2] and in data set [3] was “low” each time.

As for `CCCCCN1C=Nc2cccc3nc4c(c1c23)Cn1c-4cc2c(c1=O)COC(=O)[C@@]2(CC)OC(=O)OCCS(=O)(=O)CCN.Cl` [Compound 8A, (9S)-9-[2-(2-Aminoethanesulfonyl)ethoxycarbonyloxy]-9-ethyl-1-pentyl-1H,12H-pyrano[3″,4″: 6′,7′]indolizino[1′,2′:6,5]pyrido[4,3,2-de]quinazoline-10,13(9H,15H)-dione hydrochloride], the “TGI (%) on Day 21” value in data set [4] (0.9 mg/kg intravenously) was 41%; in data set [4] (1.9 mg/kg intravenously), 53%; in data set [4] (3.75 mg/kg intravenously) it was 55%; in data set [4] (7.5 mg/kg intravenously) it was 61%; in data set [4] (15 mg/kg intravenously) it was 78%; in data set [4] (30 mg/kg intravenously) it was 96%. Besides, in data set [4] (60 mg/kg intravenously), the “TGI (%) on Day 21” value was found to be 106%. Further, the solubility in data set [1] (setting [5]) was more than 10000 µg/mL.

Consider `CCCCCN1C=Nc2cccc3nc4c(c1c23)Cn1c-4cc2c(c1=O)COC(=O)[C@@]2(CC)OC(=O)CN(C)C(=O)CNC.Cl` [Compound 4A, (9S)-9-Ethyl-9-(sarcosyl-sarcosyloxy)-1-pentyl-1H,12H-pyrano[3″,4″:6′,7′]indolizino[1′,2′:6,5]pyrido[4,3,2-de]quinazoline-10,13(9H,15H)-dione hydrochloride], for which the solubility in data set [1] (setting [5]) is more than 10000 µg/mL.

Take `CC[C@@]1(OC(=O)CN(C)C(=O)CN)C(=O)OCc2c1cc1n(c2=O)Cc2cc3ccccc3nc2-1.Cl` [Compound 5A, (aminoacetyl-methyl-amino)-acetic acid (S)-4-ethyl-3,13-dioxo-3,4,12,13-tetrahydro-1H-2-oxa-6,12a-diaza-dibenzo[b,h]fluoren-4-yl ester hydrochloride]: the solubility in data set [1] (setting [5]) was more than 10000 µg/mL.

As for `CCCCCN1C=Nc2cccc3nc4c(c1c23)Cn1c-4cc2c(c1=O)COC(=O)[C@@]2(CC)OC(=O)CN(C)CCNC.Cl` [Compound 1A, (9S)-9-Ethyl-9-{[methyl-(2-methylamino-ethyl)-amino]-acetoxy}-1-pentyl-1H,12H-pyrano[3″,4″:6′,7′]indolizino[1′,2′:6,5]pyrido[4,3,2-de]quinazoline-10,13(9H,15H)-dione hydrochloride], in data set [1] (setting [5]), the solubility was more than 10000 µg/mL.
